Literature values, collected in PMC8245892, “Pharmacokinetics of a Single Dose of Turmeric Curcuminoids Depends on Formulation: Results of a Human Crossover Study” (The Journal of Nutrition, 2021).
Structures can show the parent of a compound that is named as a salt.

Key:
[1] = design: method as in PMID 24280069
[2] = test system: NF-κB; design: method as in PMID 24280069
[3] = test system: phorbol ester–induced PGE2 production; design: method as in PMID 11221833; conditions: human cells; compared with unconjugated curcumin
[4] = aqueous buffer (pH 5.0)

| Molecule | Antiproliferative activity [1] | Effect on NF-κB [2] | Reduction of phorbol ester–induced PGE2 production [3] | Solubility [4] |
| --- | --- | --- | --- | --- |
| COc1cc(/C=C/C(O)=C/C(=O)/C=C/c2ccc(O[C@@H]3O[C@H](C(=O)O)[C@@H](O)[C@H](O)[C@H]3O)c(OC)c2)ccc1O [curcumin monoglucuronide] | very little antiproliferative activity | no effect | – | – |
| COc1cc(/C=C/C(O)=C/C(=O)/C=C/c2ccc(OS(=O)(=O)O)c(OC)c2)ccc1O [curcumin sulfate] | – | – | less effective than unconjugated curcumin | – |
| COc1cc(C=CC(=O)CC(=O)C=Cc2ccc(OC3OC(C(=O)O)C(O)C(O)C3O)c(OC)c2)ccc1OC1OC(C(=O)O)C(O)C(O)C1O (stereo not drawn) [diglucuronide] | very little antiproliferative activity | no effect | – | – |
| curcumin | – | – | – | 0.011 µg/mL |
